Test results from patent publication US8258158B2 (Hoffmann-La Roche Inc., priority 2009, dated 2012).

Molecular target: T1, human HSL (Homo sapiens, UniProt Q05469)
T1 construct: overlapping PCR to generate a full length human HSL ORF with a 3′-His6 tag; His6 (C); made in house; host or cells: High 5 insect cells (baculovirus, pFast-BAC)
T1 sequence (Q05469 1-1076): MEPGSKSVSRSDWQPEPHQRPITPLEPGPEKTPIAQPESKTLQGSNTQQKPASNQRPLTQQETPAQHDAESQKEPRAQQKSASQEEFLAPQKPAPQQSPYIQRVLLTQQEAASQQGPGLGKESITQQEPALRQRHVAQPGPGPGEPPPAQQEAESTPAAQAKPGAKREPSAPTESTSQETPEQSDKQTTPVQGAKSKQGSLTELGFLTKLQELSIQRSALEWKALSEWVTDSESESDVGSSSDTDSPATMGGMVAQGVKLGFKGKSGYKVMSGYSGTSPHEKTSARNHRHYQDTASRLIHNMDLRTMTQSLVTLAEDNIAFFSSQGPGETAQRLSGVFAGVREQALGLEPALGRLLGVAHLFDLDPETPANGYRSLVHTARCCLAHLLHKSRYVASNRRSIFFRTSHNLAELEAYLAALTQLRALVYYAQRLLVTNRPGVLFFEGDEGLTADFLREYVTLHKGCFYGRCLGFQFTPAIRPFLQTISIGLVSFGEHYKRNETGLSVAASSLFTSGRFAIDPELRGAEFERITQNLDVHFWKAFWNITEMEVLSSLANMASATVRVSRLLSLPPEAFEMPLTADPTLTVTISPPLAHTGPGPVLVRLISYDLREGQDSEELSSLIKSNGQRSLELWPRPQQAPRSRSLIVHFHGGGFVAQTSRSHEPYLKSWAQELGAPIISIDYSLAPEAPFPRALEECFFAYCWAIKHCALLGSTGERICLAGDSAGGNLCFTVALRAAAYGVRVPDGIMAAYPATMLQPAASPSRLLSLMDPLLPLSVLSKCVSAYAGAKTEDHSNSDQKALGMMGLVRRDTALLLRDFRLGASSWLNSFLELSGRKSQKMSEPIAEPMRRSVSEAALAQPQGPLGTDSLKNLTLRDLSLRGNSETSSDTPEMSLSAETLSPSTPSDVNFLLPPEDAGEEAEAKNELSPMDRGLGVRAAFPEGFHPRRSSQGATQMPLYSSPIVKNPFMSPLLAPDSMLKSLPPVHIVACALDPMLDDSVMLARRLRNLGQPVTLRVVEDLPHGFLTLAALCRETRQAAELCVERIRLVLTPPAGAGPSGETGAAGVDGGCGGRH
Assay: Human hormone-sensitive lipase (HSL) enzyme inhibition assay (colorimetric, DMPT substrate)
Type: biochemical
Details: human full length HSL-His6; 2,3-dimercapto-1-propanol tributyrate substrate; 37° C., 20 minutes; read-out: HSL hum IC50
Protocol: Production of Human Full Length Hormone Sensitive Lipase-His^6:
1) Cloning: cDNA was prepared from commercial human brain polyA+ RNA and used as a template in overlapping PCR to generate a full length human HSL ORF with a 3′-His6 tag. This full length insert was cloned into the pFast-BAC vector and the DNA-sequence of several single clones was verified. DNA from a correct full length clone with the 3′His6 tag was used to transform the E. coli strain DH10BAC. Resulting bacmid DNA was used to generate a titered baculovirus stock for protein generation. The sequence of the encoded HSL conforms to Swissprot entry Q05469, with the additional C-terminal His6-tag.
2) Protein purification: Culture: 5.5 L, High 5 cells expressing human full length HSL-His^6, 48 hr., containing 25 μM E-64. Cell count: […], 90% viable. Cells were thawed. On ice, cells were suspended in Base Buffer containing 10% glycerol, 25 mM Tris-Cl, 300 mM NaCl, 10 mM imidazole, 10 mM 2-mercaptoethanol, 2 μg pepstatin/ml, 2 μg leupeptin/ml, 2 μg antipain/ml, pH 8.0 at 4° C. in a final volume of 475 ml with 3.75×10^7 cells/ml. […] was done at 3×30 sec., Lubrol PX was added to 0.2% final concentration followed by stirring for 15 min. at 4° C. and centrifugation at 25 k×g, 60 min., 4° C. Soluble proteins were mixed with 60 ml of pre-washed and equilibrated Ni-NTA Agarose (Qiagen 30210) followed by tumbling end-over-end, 45 min., 4° C., centrifugation 1000 rpm 5 min and letting resin settle 5 min. Supernatant was removed, the resin washed in the centrifuge vessel using 5 volumes of Base Buffer containing 0.2% Lubrol PX. Centrifugation was done again, then the supernatant discarded. The resin was poured onto a 0.8 μm membrane in a disposable filter unit (Nalge 450-0080), and washed with 5 volumes of Base Buffer containing 0.2% Lubrol PX. It was then washed with 30 volumes of Base Buffer containing 60 mM imidazole pH 7.5 at 4° C. The protein was eluated with 5 volumes of 25 mM Tris-Cl, 300 mM NaCl, 200 mM imidazole, 10 mM 2-mercaptoethanol, pH 7.5 at 4° C. by tumbling resin with buffer end-over-end, 30 min., 4° C. The resin was captured on a 0.2 μm membrane disposable filter unit (Millipore SCGP U02 RE) and the eluate collected in the reservoir. The eluate was concentrated using a 30 k MWCO centrifugal filter device (Sartorius Vivascience Vivacell 100, VC1022), to 20 ml. It was then dialyzed overnight at 4° C., two times against 2 L of 10% glycerol, 25 mM Tris-Cl, 300 mM NaCl, 0.2 mM EDTA, 0.2 mM DTT, pH 7.5 at 4° C. The protein was filtered using a 0.22 μm disposable filter unit (Millipore SCGP00525). The protein concentration was calculated from absorbance at 280 nm, using 280=0.67 cm-1 mg-1. Yield was 235 mg, total. The protein was stored at −80° C.
Human Hormone-Sensitive Lipase (HSL) Enzyme Inhibition Assay:
HSL enzyme activity was measured by a colorimetric assay using 2,3-dimercapto-1-propanol tributyrate (Aldrich, St. Louis, Mo.) as a substrate. Typically, 1.5 mM 2,3-dimercapto-1-propanol tributyrate (DMPT) in 100 mM MOPS, pH 7.2, 0.2 mg/ml fatty acid-free BSA was prepared by sonication at 4° C. to homogenous suspension. Test compounds (2 mM stock in DMSO) were diluted 3 fold in series in DMSO. Compound solutions were diluted 24 fold in 1.5 mM DMPT containing solution and 18 ul per well was added to 384-well microplates (Corning Costar). Twelve microliters per well of human HSL (15 ug/ml) was added and the reaction mixture was incubated at 37° C. for 20 minutes. Six microliters of 12 mM dithio-bis-(2-nitrobenzoic acid) (DTNB) in DMSO plus 1.2% SDS and 0.6% Triton X-100 were added and the mixture was incubated at room temperature for 15 minutes. Product production was monitored by reading absorbance at 405 nm on an Envision Reader (PerkinElmer Life and Analytical Sciences, Shelton, Conn.).

Compound	IC50 [nM]
Cc1ccc(S(=O)(=O)N2CCC(C(=O)Nc3ccc(OC(C)(C)C(F)(F)F)cc3)CC2)cc1 [Example 33, 1-(Toluene-4-sulfonyl)-piperidine-4-carboxylic acid [4-(2,2,2-trifluoro-1,1-dimethyl-ethoxy)-phenyl]-amide]	130
COc1ccc(S(=O)(=O)N2CCC(C(=O)Nc3ccc(OC(F)(F)F)cc3)CC2)cc1 [Example 48, 1-(4-Methoxy-benzenesulfonyl)-piperidine-4-carboxylic acid (4-trifluoromethoxy-phenyl)-amide]	40
CC(C)Oc1ccc(NC(=O)C2CCN(S(=O)(=O)c3ccccc3)CC2)cc1 [Example 47, 1-Benzenesulfonyl-piperidine-4-carboxylic acid (4-isopropoxy-phenyl)-amide]	70
Cc1ccc(S(=O)(=O)N2CCC(C(=O)Nc3ccc(OC(CO)C(F)(F)F)cc3)CC2)cc1 (racemic) [Example 45, (rac)-1-(Toluene-4-sulfonyl)-piperidine-4-carboxylic acid [4-(2,2,2-trifluoro-1-hydroxymethyl-ethoxy)-phenyl]-amide]	150
Cc1ccc(S(=O)(=O)N2CCC(C(=O)Nc3ccc(OC(C)C)cc3)CC2)cc1 [Example 7, 1-(Toluene-4-sulfonyl)-piperidine-4-carboxylic acid (4-isopropoxy-phenyl)-amide]	70
Cc1ccc(S(=O)(=O)N2CCC(C(=O)NCC3(c4ccc(Cl)cc4)CC3)CC2)cc1 [Example 64, 1-(Toluene-4-sulfonyl)-piperidine-4-carboxylic acid [1-(4-chloro-phenyl)-cyclopropylmethyl]-amide]	1490
CC1(C(=O)Nc2ccc(OC(F)(F)F)cc2)CCN(S(=O)(=O)c2ccccc2Cl)CC1 [Example 58, 1-(2-Chloro-benzenesulfonyl)-4-methyl-piperidine-4-carboxylic acid (4-trifluoromethoxy-phenyl)-amide]	540
Cc1ccc(S(=O)(=O)N2CCC(CO)(C(=O)Nc3ccc(OC(F)(F)F)cc3)CC2)cc1 [Example 51]	330
O=C(Nc1ccc(OC(F)(F)F)cc1)C1(CO)CCN(S(=O)(=O)c2ccccc2)CC1 [Example 26, 1-Benzenesulfonyl-4-hydroxymethyl-piperidine-4-carboxylic acid (4-trifluoromethoxy-phenyl)-amide]	220
O=C(NCC1(c2ccc(Cl)cc2)CC1)C1CCN(S(=O)(=O)c2ccccc2Cl)CC1 [Example 61, 1-(2-Chloro-benzenesulfonyl)-piperidine-4-carboxylic acid [1-(4-chloro-phenyl)-cyclopropylmethyl]-amide]	640
O=C(Nc1ccc(OC(F)(F)F)cc1)C1(CO)CCN(S(=O)(=O)c2ccccc2Cl)CC1 [Example 28, 1-(2-Chloro-benzenesulfonyl)-4-hydroxymethyl-piperidine-4-carboxylic acid (4-trifluoromethoxy-phenyl)-amide]	660
CCN(C(=O)C1CCN(S(=O)(=O)c2ccc(C)cc2)CC1)c1ccc(OC(C)C(F)(F)F)cc1 (racemic) [Example 4, (rac)-1-(Toluene-4-sulfonyl)-piperidine-4-carboxylic acid ethyl-[4-(2,2,2-trifluoro-1-methyl-ethoxy)-phenyl]-amide]	3000
Cc1ccc(S(=O)(=O)N2CCC(C(=O)Nc3ccc(OC(F)(F)F)cc3)CC2)cc1 [Example 1, 1-(Toluene-4-sulfonyl)-piperidine-4-carboxylic acid (4-trifluoromethoxy-phenyl)-amide]	80

Now from value to molecule:

IC50 [nM]	Compound
1140	CC(Oc1ccc(NC(=O)C2(CO)CCN(S(=O)(=O)c3ccccc3Cl)CC2)cc1)C(F)(F)F (racemic) [Example 24, 1-(2-Chloro-benzenesulfonyl)-4-hydroxymethyl-piperidine-4-carboxylic acid [4-(2,2,2-trifluoro-1-methyl-ethoxy)-phenyl]-amide]
600	O=C(Nc1ccc(OC(F)(F)F)cc1)C1CCN(S(=O)(=O)N2CCOCC2)CC1 [Example 37, 1-(Morpholine-4-sulfonyl)-piperidine-4-carboxylic acid (4-trifluoromethoxy-phenyl)-amide]
160	Cc1ccc(S(=O)(=O)N2CCC(C(=O)Nc3ccc(OCC(F)(F)F)cc3)CC2)cc1 [Example 14, 1-(Toluene-4-sulfonyl)-piperidine-4-carboxylic acid [4-(2,2,2-trifluoro-ethoxy)-phenyl]-amide]
12000	COc1ccc(NC(=O)C2CCN(S(=O)(=O)c3ccccc3)CC2)nn1 [Example 3, 1-Benzenesulfonyl-piperidine-4-carboxylic acid (6-methoxy-pyridazin-3-yl)-amide]
320	Cc1ccc(S(=O)(=O)N2CCC(F)(C(=O)Nc3ccc(C(C)C)cc3)CC2)cc1 [Example 41, 4-Fluoro-1-(toluene-4-sulfonyl)-piperidine-4-carboxylic acid (4-isopropyl-phenyl)-amide]
950	CC(Oc1ccc(NC(=O)C2(CO)CCN(S(=O)(=O)c3ccccc3)CC2)cc1)C(F)(F)F (racemic) [Example 27, (rac)-1-Benzenesulfonyl-4-hydroxymethyl-piperidine-4-carboxylic acid [4-(2,2,2-trifluoro-1-methyl-ethoxy)-phenyl]-amide]
20	O=C(Nc1ccc(OC(F)(F)F)cc1)C1CCN(S(=O)(=O)c2ccccc2Cl)CC1 [Example 38, 1-(2-Chloro-benzenesulfonyl)-piperidine-4-carboxylic acid (4-trifluoromethoxy-phenyl)-amide]
